Experimental findings from US10118926B2, “Tricyclic quinoline and quinoxaline derivatives” (AbbVie Deutschland GmbH & Co. KG, priority 2012, dated 2018) are described below.

Counter-ions that a name gives are not always drawn.

In the assay the target is T1, 5-HT2C receptor (Homo sapiens, UniProt P28335).
T1 construct: β-galactosidase enzyme-complementation fragment (ProLink-type donor); host or cells: U2OS
Nature of the assay: Functional activity: beta-arrestin2 recruitment to the 5-HT2C receptor in U2OS_HTR2C_β-Arrestin cells (DiscoverX). Format: cell-based. The conditions noted are these: for EC50: U2OS_HTR2C_β-Arrestin cells, 1.5 h incubation, chemiluminescent β-galactosidase complementation readout, read-out: Potency (EC50) in functional assay; for Emax / % efficacy: relative efficacy: response as percentage of response to 10 μM 5-HT or maximal effect induced by 5-HT (defined as 100%). The procedure:
The functional activity of compounds of formula I was assayed by incubation with U2OS_HTR2C_β-Arrestin cells (DiscoverX, 93-0289C3) to induce beta-arrestin2 recruitment to the 5-HT2C receptor. The agonist-induced recruitment and proximity of the receptor and beta-arrestin2 leads to complementation and formation of active β-galactosidase. The enzyme complementation results in enzyme activity, which is measured following the termination of the agonist incubation using DiscoveRx's detection reagent, which contains a chemiluminescent substrate which produces a high intensity signal. Cells were plated and a medium-change to a 1% serum containing medium was performed 24 h later. The next day, test compounds were added and incubated for 1.5 h before addition of detection reagent.
The response produced was measured and compared with the response produced by 10 [mu]M 5-HT or the maximal effect induced by 5-HT (defined as 100%) to which it was expressed as a percentage response (relative efficacy). Dose response curves were constructed using Graphpad Prism (Graph Software Inc.) or using in house adapted software using a 4 parameter dose response model with variable slope (fit=(Bottom+(Top−Bottom)/(1+10^((Log EC50−x)*HillSlope))res=(y−fit)). Results are compiled in the table below.
In general terms: Recruitment of arrestin is a read-out of receptor activation apart from second messengers.

T1 sequence (P28335 33-458): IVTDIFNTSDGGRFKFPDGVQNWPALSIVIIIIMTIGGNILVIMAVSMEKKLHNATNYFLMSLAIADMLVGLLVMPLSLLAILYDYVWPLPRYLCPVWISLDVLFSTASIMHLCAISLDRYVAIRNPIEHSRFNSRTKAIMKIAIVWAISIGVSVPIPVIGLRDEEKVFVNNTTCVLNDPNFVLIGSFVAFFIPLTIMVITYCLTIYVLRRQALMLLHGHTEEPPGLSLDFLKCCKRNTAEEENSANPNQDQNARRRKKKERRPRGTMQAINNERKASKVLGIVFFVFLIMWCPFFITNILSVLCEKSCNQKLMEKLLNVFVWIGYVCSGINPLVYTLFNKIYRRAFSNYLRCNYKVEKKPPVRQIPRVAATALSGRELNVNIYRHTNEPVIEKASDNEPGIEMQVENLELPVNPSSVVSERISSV
T1 sequence (P32121 whole entry partner, the tested form may be a part): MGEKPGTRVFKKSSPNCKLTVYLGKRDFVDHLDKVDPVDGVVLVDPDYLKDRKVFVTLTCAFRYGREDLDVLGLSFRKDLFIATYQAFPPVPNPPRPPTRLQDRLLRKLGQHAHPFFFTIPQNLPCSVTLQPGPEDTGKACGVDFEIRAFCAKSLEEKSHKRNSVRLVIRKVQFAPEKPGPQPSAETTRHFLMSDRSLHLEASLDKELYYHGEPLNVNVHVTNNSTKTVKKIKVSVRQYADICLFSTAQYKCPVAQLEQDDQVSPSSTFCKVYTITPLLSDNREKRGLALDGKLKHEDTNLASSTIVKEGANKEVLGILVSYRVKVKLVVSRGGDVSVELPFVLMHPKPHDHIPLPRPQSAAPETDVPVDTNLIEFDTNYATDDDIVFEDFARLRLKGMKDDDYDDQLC

A word on the EC50: it is the midpoint of the concentration-response curve. By Emax is commonly meant the greatest response seen or fitted, relative to the assay's reference. Turning to `c1cc2c3c(c1)N(C1CCC1)CCN3CCNC2` [Example 33, 1-Cyclobutyl-2,3,5,6,7,8-hexahydro-1H-[1,4]diazepino[1,7,6-de]quinoxaline 2,2,2-trifluoroacetate], the EC50 was in the range of 200 to 1000 nM and the Emax was 78%.

For `CC1CNCc2cccc3c2N1CCC3(C)C` (stereo not shown) [Example 51, 4,8,8-Trimethyl-2,3,4,6,7,8-hexahydro-1H-[1,4]diazepino[6,7,1-ij]quinoline 2,2,2-trifluoroacetate], the EC50 was in the range of 20 to 200 nM and the Emax was 102%.

The molecule `CC1(C)CCN2CCNCc3cccc1c32` [Example 1, 8,8-Dimethyl-2,3,4,6,7,8-hexahydro-1H-[1,4]diazepino[6,7,1-ij]quinoline] came in with an Emax of 71%.

In turn, `c1cc2c3c(c1)C1(CCCC1)CCN3CCNC2` [Example 6, 1,2,3,4,6,7-Hexahydrospiro[[1,4]diazepino [6,7,1-ij]quinoline-8,1′-cyclopentane]] yielded an Emax of 63%.

As for `c1cc2c3c(c1)N(C1COC1)CCN3CCNC2` [Example 35, 1-(Oxetan-3-yl)-2,3,5,6,7,8-hexahydro-1H-[1,4]diazepino[1,7,6-de]quinoxaline 2,2,2-trifluoroacetate], the EC50 fell in the range of 20 to 200 nM and the Emax was 112%.

With `CCC1(C)CCN2CCNCc3cccc1c32.O=C(O)C(F)(F)F` (single isomer, unassigned) [Example 54, One enantiomer of 8-ethyl-8-methyl-2,3,4,6,7,8-hexahydro-1H-[1,4]diazepino[6,7,1-ij]-quinoline, trifluoroacetic acid], the EC50 is 200 to 1000 nM and the “% efficacy” value was found to be 24%.

For the molecule `CC1CN2CCNCc3cccc(c32)C1(C)C` (single isomer, unassigned) [Example 28, Enantiomer of 7,8,8-trimethyl-1,2,3,4,7,8-hexahydro-6H-[1,4]diazepino[6,7,1-ij]quinoline]], the “% efficacy” value is 55%.

Take `c1cc2c3c(c1)N1CC4CC4C1CN3CCNC2` (stereo not shown) [Example 68, 4,5,6,7,9,9a,9b,10,10a,11-Decahydrocyclopropa[3,4]pyrrolo[1,2-a][1,4]diazepino[1,7,6-de]quinoxaline]: the EC50 is 20 to 200 nM and the Emax was 76%.

In turn, `c1cc2c3c(c1)N1CCC[C@@H]1CN3CCNC2` [Example 16, (R)-5,6,7,9,9a,10,11,12-Octahydro-4H-[1,4]diazepino[1,7,6-de]pyrrolo[1,2-a]quinoxaline (2,2,2-trifluoroacetate)] yielded an Emax of 55%.

`Cc1ccc2c3c1N1CCCC1CN3CCNC2` (stereo not shown) [Example 59, 1-Methyl-5,6,7,9,9a,10,11,12-octahydro-4H-[1,4]diazepino[1,7,6-de]pyrrolo[1,2-a]quinoxaline, trifluoroacetic acid]: the EC50 is 20 to 200 nM and the Emax is 51%.

As for `CC1CNCc2cccc3c2N1CCN3C1CCCC1` (stereo not shown) [Example 43, 1-Cyclopentyl-5-methyl-2,3,5,6,7,8-hexahydro-1H-[1,4]diazepino[1,7,6-de]quinoxaline], the EC50 lay in the range of 200 to 1000 nM and the Emax is 59%.

In turn, `CC1(C)CCN2CCNCc3ccc(F)c1c32` [Example 22, 9-Fluoro-8,8-dimethyl-2,3,4,6,7,8-hexahydro-1H-[1,4]diazepino[6,7,1-ij]quinoline] displayed an Emax of 69%.

In the case of `CC1CNCc2ccc(F)c3c2N1CC1CCCN31` (stereo not shown) [Example 46, 1-Fluoro-7-methyl-5,6,7,9,9^a,10,11,12-octahydro-4H-[1,4]diazepino[1,7,6-de]pyrrolo[1,2-a]quinoxaline], the EC50 lay in the range of 200 to 1000 nM and the Emax is 71%.

Take `c1cc2c3c(c1)N(CC1CCCC1)CCN3CCNC2` [Example 37, 1-(Cyclopentylmethyl)-2,3,5,6,7,8-hexahydro-1H-[1,4]diazepino[1,7,6-de]quinoxaline]: the EC50 lay in the range of 200 to 1000 nM and the Emax came to 21%.

In turn, `CC1(C)CCN2CCNCc3cc(Cl)cc1c32` [Example 19, 10-Chloro-8,8-dimethyl-2,3,4,6,7,8-hexahydro-1H-[1,4]diazepino [6,7,1-ij]quinoline (2,2,2-trifluoroacetate)] gave an Emax of 25%.

With `Fc1ccc2c3c1N1CCCC1CN3CCNC2` (stereo not shown) [Example 57, 1-Fluoro-5,6,7,9,9a,10,11,12-octahydro-4H-[1,4]diazepino[1,7,6-de]pyrrolo[1,2-a]quinoxaline, trifluoroacetic acid], the EC50 fell in the range of 200 to 1000 nM and the Emax amounted to 35%.

`c1cc2c3c(c1)C1(CCC1)CCN3CCNC2` [Example 25, 1′,2′,3′,4′,6′,7′-Hexahydrospiro[cyclobutane-1,8′-[1,4]diazepino [6,7,1-ij]quinoline], hydrochloride] returned an Emax of 90%.

`c1cc2c3c(c1)N1CCC[C@H]1CN3CCNC2` [Example 17, (S)-5,6,7,9,9a,10,11,12-Octahydro-4H-[1,4]diazepino[1,7,6-de]pyrrolo[1,2-a]quinoxaline (2,2,2-trifluoroacetate)] had an Emax of 84%.

Consider `Cc1ccc2c3c1CNCCN3CCC21CCC1` [Example 66, 11-Methyl-1,2,3,4,6,7-hexahydrospiro[[1,4]diazepino[6,7,1-ij]quinoline-8,1′-cyclobutane], 2,2,2-trifluoroacetic acid], for which the concentration for a half-maximal effect (EC50) lay in the range of 200 to 1000 nM and the Emax turned out to be 53%.

Regarding `CC1CNCc2cccc3c2N1CCC31CCC1` (stereo not shown) [Example 56, 4-Methyl-1,2,3,4,6,7-hexahydrospiro[[1,4]diazepino[6,7,1-ij]quinoline-8,1′-cyclobutane]], the EC50 was under 20 nM and the Emax was found to be 124%.

With `Cc1ccc2c3c1C1(CCC1)CCN3CCNC2` [Example 67, 9-Methyl-1,2,3,4,6,7-hexahydrospiro[[1,4]diazepino[6,7,1-ij]quinoline-8,1′-cyclobutane], trifluoroacetic acid], the EC50 is under 20 nM and the Emax came out at 116%.

In the case of `CC1(C(F)(F)F)CCN2CCNCc3cccc1c32` (single isomer, unassigned) [Example 8, 8-Methyl-8-(trifluoromethyl)-2,3,4,6,7,8-hexahydro-1H-[1,4]diazepino [6,7,1-ij]quinoline], the “% efficacy” value amounted to 40%.

In the case of `CCC1(C)CCN2CCNCc3cccc1c32.O=C(O)C(F)(F)F` (single isomer, unassigned) [Example 55, Other enantiomer of 8-ethyl-8-methyl-2,3,4,6,7,8-hexahydro-1H-[1,4]diazepino[6,7,1-ij]quinoline, trifluoroacetic acid], the EC50 fell in the range of 200 to 1000 nM and the “% efficacy” value amounted to 26%.

In turn, `Fc1ccc2c3c1C1(CCC1)CCN3CCNC2` [Example 26, 9′-Fluoro-1′,2′,3′,4′,6′,7′-hexahydrospiro[cyclobutane-1,8′-[1,4]diazepino[6,7,1-ij]quinoline], hydrochloride] registered an Emax of 107%.

With `c1cc2c3c(c1)N(C1CCCC1)CCN3CCNC2` [Example 41, 1-Cyclopentyl-2,3,5,6,7,8-hexahydro-1H-[1,4]diazepino[1,7,6-de]quinoxaline], the EC50 was in the range of 200 to 1000 nM and the Emax was found to be 75%.

Consider `CC1CNCc2cccc3c2N1CCC31CC1` (stereo not shown) [Example 48, 4-Methyl-1,2,3,4,6,7-hexahydrospiro[[1,4]diazepino[6,7,1-ij]quinoline-8,1′-cyclopropane]], for which the EC50 is 20 to 200 nM and the Emax amounted to 105%.

With `CC1CN2CCNCc3cccc(c32)C1(C)C` (single isomer, unassigned) [Example 27, Enantiomer of 7,8,8-trimethyl-1,2,3,4,7,8-hexahydro-6H-[1,4]diazepino[6,7,1-ij]quinoline]], the “% efficacy” value is on record as 87%.

Regarding `CCCN1CCN2CCNCc3cccc1c32` [Example 70, 1-Propyl-2,3,5,6,7,8-hexahydro-1H-[1,4]diazepino[1,7,6-de]quinoxaline], the EC50 fell in the range of 20 to 200 nM and the Emax is 63%.

For the molecule `CCN1CCN2CCNCc3cccc1c32` [Example 69, 1-Ethyl-2,3,5,6,7,8-hexahydro-1H-[1,4]diazepino[1,7,6-de]quinoxaline], the EC50 was in the range of 200 to 1000 nM and the Emax came to 54%.

With `Cc1cc2c3c(c1)C1(CCC1)CCN3CCNC2` [Example 76, 10-Methyl-1,2,3,4,6,7-hexahydrospiro[[1,4]diazepino[6,7,1-ij]quinoline-8,1′-cyclobutane], trifluoroacetic acid], the EC50 is under 20 nM and the Emax was 98%.

Consider `c1cc2c3c(c1)C1(CCN3CCNC2)CC1` [Example 47, 1,2,3,4,6,7-Hexahydrospiro[[1,4]diazepino[6,7,1-ij]quinoline-8,1′-cyclopropane]], for which the EC50 was in the range of 20 to 200 nM and the Emax was found to be 59%.

As to `CC1(C)CCN2CCNCc3c(F)ccc1c32` [Example 49, 11-Fluoro-8,8-Dimethyl-2,3,4,6,7,8-hexahydro-1H-[1,4]diazepino[6,7,1-ij]quinoline], the EC50 was 200 to 1000 nM and the Emax was 78%.

As to `c1cc2c3c(c1)N1CCCCCC1CN3CCNC2` (stereo not shown) [Example 44, 5,6,7,9,9a,10,11,12,13,14-decahydro-4H-azepino[1,2-a][1,4]diazepino[1,7,6-de]quinoxaline], the EC50 fell in the range of 20 to 200 nM and the Emax worked out at 55%.
